Measurements reported in patent publication US4124598A, “Psoralens” (Hoffmann-La Roche Inc., priority 1976, dated 1978).

Key:
DNA = experiment: Reactivity with DNA (general statement); assay type: binding, calf
Method: (§1) The covalent binding of the psoralens to DNA and RNA was studied. To achieve covalent binding, it is necessary to supply radiant energy (light) to the binding sites. These studies were carried out as follows:
(§2) The DNA and RNA used in the covalent binding studies have been described previously. Samples of each nucleic acid were prepared at a concentration of 25 ug/ml in 0.01 m Tris 0.001 M EDTA buffer. The radioactive-psoralen derivatives were added in a ratio of one psoralen for every three base pairs. The irradiation was carried out in one of the two following devices.
The low intensity irradiations were performed with a modified slide projector which was fitted with a 400 watt General Electric mercury vapor lamp (H 400 A 33-1/T16). The image of the arc was focused on the same cell, jacketed by a cobaltous nitrate solution which was also used for the high intensity irradiations. The light intensity delivered to the sample in this device was 4 to 6 mw/cm^2. The high intensity irradiations were carried out in a device containing two of the sam 400 watt General Electric mercury vapor lamps which were mounted on either side of a double walled sample chamber at a distance between centers of 4.0 cm. The chamber was cooled to 10° C. by continuous circulation of a temperature regulated solution of cobaltous nitrate (40% w/w). The cobalt solution served as an ultraviolet filter which allowed a maximum transmittance of 365 nm light and a window from approximately 340-380 nm. The intensity of the light at the surface of the inner sample chamber was approximately 100 mw/cm^2. The nucleic acid-psoralen mixture was placed in the inner chamber where it was continuously stirred throughout the irradiation. Aliquots of each solution (derivative plus nucleic acid) were taken at 20, 40 and 60 minutes. […] Finally, the optical density of the nucleic-acid psoralen mixture was taken and its radioactivity determined, thus giving the amount of derivative covalently bound to the DNA or RNA. […]

[1] = system: vesicular stomatitis virus; assay type: cell-based, Vesicular stomatitis virus Indiana strain; conditions: high dose rates, e.g., 30 μg/ml
DNA (calf thymus) [2] = experiment: High intensity photoaddition (covalent binding) to DNA; conditions: 25 μg/ml DNA, psoralen:base pair 1:3
Method: as §1, §2
(§3) The low intensity irradiations were performed with a modified slide projector which was fitted with a 400 watt General Electric mercury vapor lamp (H 400 A 33-1/T16). The image of the arc was focused on the same cell, jacketed by a cobaltous nitrate solution which was also used for the high intensity irradiations. The light intensity delivered to the sample in this device was 4 to 6 mw/cm^2. The high intensity irradiations were carried out in a device containing two of the sam 400 watt General Electric mercury vapor lamps which were mounted on either side of a double walled sample chamber at a distance between centers of 4.0 cm. The chamber was cooled to 10° C. by continuous circulation of a temperature regulated solution of cobaltous nitrate (40% w/w). The cobalt solution served as an ultraviolet filter which allowed a maximum transmittance of 365 nm light and a window from approximately 340-380 nm. The intensity of the light at the surface of the inner sample chamber was approximately 100 mw/cm^2. The nucleic acid-psoralen mixture was placed in the inner chamber where it was continuously stirred throughout the irradiation. Aliquots of each solution (derivative plus nucleic acid) were taken at 20, 40 and 60 minutes. Each aliquot was then extracted twice with chloroform/iso-amyl alcohol (24:1) to remove unreacted psoralen followed by exhaustive dialysis against 0.01 M Tris, 0.001 M EDTA buffer. The successful extraction of unbound psoralen by the chloroform-isoamyl alcohol required the aqueous phase to be at least 0.15 M in NaCl. Finally, the optical density of the nucleic-acid psoralen mixture was taken and its radioactivity determined, thus giving the amount of derivative covalently bound to the DNA or RNA. Taking samples, at spaced time intervals also permitted an assessment of the kinetics of the covalent binding.

[3] = Molar extinction coefficient in pure water; assay type: physicochemical
Text: (§4) The units of the dissociation constants are moles/liter. Solubilities and molar extinction coefficients (ε) were obtained in pure water, the equilibrium constants (KD) in 0.01 M Tris.

Solubility in pure water = assay type: physicochemical; conditions: pure water
Text: In order to study solubilities and dissociation constants, it is most convenient to prepare tritiated derivatives of the psoralen compounds. Thus, well-known radiation counting methods may be utilized to monitor the presence of the psoralens in solutions, or in nucleic acids.
as §4

Calf thymus DNA = experiment: Equilibrium dialysis, non-covalent binding to DNA; conditions: for (PS)/(S) for DNA in Saturated Solution: occupied/unoccupied binding sites
Method: (§5) In order to establish the dissociation constants from DNA and RNA, the non-covalent binding was ascertained. Non-covalent binding determines the presence of the psoralen within the nucleic acid helix. Its presence is determined in the absence of any radiant energy. As noted before, radiant energy is necessary to activate the psoralen covalent binding reaction with nucleic acid base pairs.
(§6) To determine the non-covalent binding, Calf thymus DNA (Sigma Type I) was dissolved in a 0.01 M Tris 0.001 M EDTA pH 8.5 buffer at a concentration of 25 ug/ml. A quantity of this DNA solution was placed in a dialysis bag (pretreated by boiling in NaHCO3), and the various tritiated derivatives were added inside the bag in half the cases and outside the bag in the other half. The molar ratio of psoralen molecules to base pairs was approximately 1:25. The bags were placed in vials filled with 18 ml of buffer and put on a shaker for 48-60 hours. After this period, radioactivity was determined both inside and outside the bags and the optical density of the DNA solution measured. From this information, and the specific activity of each derivative, the amount of drug non-covalently bound to the DNA was determined. Binding of the derivatives to Drosophila melanogaster ribosomal RNA was measured in exactly the same manner.
as §4

[4] = system: RNA (Drosophila melanogaster ribosomal RNA); experiment: High intensity photoaddition (covalent binding) to RNA; conditions: 25 μg/ml RNA, psoralen:base pair 1:3
Method: as §1, §2, §3

DNA (calf thymus) [5] = experiment: Low intensity photoaddition (covalent binding) to DNA; conditions: for A (footnote 1, shown as drawing 9) / B = percent of added psoralen covalently bound: 25 μg/ml DNA, psoralen:base pair 1:3
Method: as §1, §2
as §3, with “Aliquots of each solution (derivative plus nucleic acid) were taken at 20, 40 and 60 minutes.” left out

[6] = target: Drosophila melanogaster ribosomal RNA; experiment: Equilibrium dialysis, non-covalent binding to RNA
Method: as §5, §6, §4

[7] = 0.01 M Tris, non-covalent binding

Compound: Cc1oc2c(C)c3oc(=O)cc(C)c3cc2c1CO [4'-hydroxymethyl-4,5',8-trimethyl psoralen]
- reactivity with DNA (DNA): excellent reactivity with DNA
- effectiveness in inactivation of vesicular stomatitis virus vs 4,5',8-trimethyl psoralen [1]: nearly one thousand times more effective
- A (footnote 1, shown as drawing 10) (DNA (calf thymus) [2]; 20 min irradiation): 9.1
- B = percent of added psoralen covalently bound (DNA (calf thymus) [2]; 20 min irradiation): 33.0%
- A (footnote 1, shown as drawing 10) (DNA (calf thymus) [2]; 40 min irradiation): 9.2
- B = percent of added psoralen covalently bound (DNA (calf thymus) [2]; 40 min irradiation): 32.6%
- A (footnote 1, shown as drawing 10) (DNA (calf thymus) [2]; 60 min irradiation): 9.1
- B = percent of added psoralen covalently bound (DNA (calf thymus) [2]; 60 min irradiation): 33.0%
- Extinction coefficient ε, 250 nm [3]: 25000 L/mol/cm
- solubility (Solubility in pure water): 41 µg/mL
- solubility (Solubility in pure water; molar): 160 µM
- Kd (Calf thymus DNA; [7]): 290 µM
- DNA site saturation, one psoralen per base pairs (Calf thymus DNA; saturated solution, expected from KD and solubility): one psoralen per three base pairs
- (PS)/(S) for DNA in Saturated Solution (Calf thymus DNA; saturated solution): 0.55
- (PS)/(S) for DNA in Saturated Solution (Calf thymus DNA; saturated solution, listed as 4'-hydroxmethyl trioxsalen): 0.5
- times more strongly binding to DNA than methoxsalen (Calf thymus DNA; vs methoxsalen): 10 times
- A (footnote 1, shown as drawing 11) ([4]; 20 min irradiation): 26.3
- B = percent of added psoralen covalently bound ([4]; 20 min irradiation): 11.5%
- A (footnote 1, shown as drawing 11) ([4]; 40 min irradiation): 24.8
- B = percent of added psoralen covalently bound ([4]; 40 min irradiation): 12.1%
- A (footnote 1, shown as drawing 11) ([4]; 60 min irradiation): 23.5
- B = percent of added psoralen covalently bound ([4]; 60 min irradiation): 13.0%
- A (footnote 1, shown as drawing 9) (DNA (calf thymus) [5]; 5 min irradiation): 89.0
- B = percent of added psoralen covalently bound (DNA (calf thymus) [5]; 5 min irradiation): 3.0%
- A (footnote 1, shown as drawing 9) (DNA (calf thymus) [5]; 10 min irradiation): 59.6
- B = percent of added psoralen covalently bound (DNA (calf thymus) [5]; 10 min irradiation): 4.6%
- A (footnote 1, shown as drawing 9) (DNA (calf thymus) [5]; 30 min irradiation): 26.0
- B = percent of added psoralen covalently bound (DNA (calf thymus) [5]; 30 min irradiation): 10.3%
- A (footnote 1, shown as drawing 9) (DNA (calf thymus) [5]; 60 min irradiation): 19.5
- B = percent of added psoralen covalently bound (DNA (calf thymus) [5]; 60 min irradiation): 13.8%
- A (footnote 1, shown as drawing 9) (DNA (calf thymus) [5]; 90 min irradiation): 17.2
- B = percent of added psoralen covalently bound (DNA (calf thymus) [5]; 90 min irradiation): 15.7%
- moles of psoralen bound per mole of base pairs (DNA (calf thymus) [5]; 90 minutes irradiation): 0.06 moles per mole of base pairs
- remains free in the solution (DNA (calf thymus) [5]; after 90 minutes of irradiation): more than 80%
- Kd [6, 7]: 1000 µM
- (PS)/(S) for RNA in Saturated Solution ([6]; saturated solution, occupied/unoccupied binding sites): 0.16
